Results as given in the kinase profiling compilation of Christmann-Franck et al. (2016).

Legend:
Experiment in all cases: radiometric filter-binding kinase assay, Kinase HotSpot
Conditions in all cases: compound 0.5 µM; ATP 10 µM
IRAK4 (human) = IRAK4 (human) (UniProt Q9NWZ3)
PRKD3 (human) = PRKD3 (human) (UniProt O94806)
CSNK2A2 (human) = CSNK2A2 (human) (UniProt P19784)
STK38 (human) = STK38 (human) (UniProt Q15208)
PTK6 (human) = PTK6 (human) (UniProt Q13882)
STK3 (human) = STK3 (human) (UniProt Q13188)
LTK (human) = LTK (human) (UniProt P29376)
LTK (human), sequence (P29376 whole entry, looked up): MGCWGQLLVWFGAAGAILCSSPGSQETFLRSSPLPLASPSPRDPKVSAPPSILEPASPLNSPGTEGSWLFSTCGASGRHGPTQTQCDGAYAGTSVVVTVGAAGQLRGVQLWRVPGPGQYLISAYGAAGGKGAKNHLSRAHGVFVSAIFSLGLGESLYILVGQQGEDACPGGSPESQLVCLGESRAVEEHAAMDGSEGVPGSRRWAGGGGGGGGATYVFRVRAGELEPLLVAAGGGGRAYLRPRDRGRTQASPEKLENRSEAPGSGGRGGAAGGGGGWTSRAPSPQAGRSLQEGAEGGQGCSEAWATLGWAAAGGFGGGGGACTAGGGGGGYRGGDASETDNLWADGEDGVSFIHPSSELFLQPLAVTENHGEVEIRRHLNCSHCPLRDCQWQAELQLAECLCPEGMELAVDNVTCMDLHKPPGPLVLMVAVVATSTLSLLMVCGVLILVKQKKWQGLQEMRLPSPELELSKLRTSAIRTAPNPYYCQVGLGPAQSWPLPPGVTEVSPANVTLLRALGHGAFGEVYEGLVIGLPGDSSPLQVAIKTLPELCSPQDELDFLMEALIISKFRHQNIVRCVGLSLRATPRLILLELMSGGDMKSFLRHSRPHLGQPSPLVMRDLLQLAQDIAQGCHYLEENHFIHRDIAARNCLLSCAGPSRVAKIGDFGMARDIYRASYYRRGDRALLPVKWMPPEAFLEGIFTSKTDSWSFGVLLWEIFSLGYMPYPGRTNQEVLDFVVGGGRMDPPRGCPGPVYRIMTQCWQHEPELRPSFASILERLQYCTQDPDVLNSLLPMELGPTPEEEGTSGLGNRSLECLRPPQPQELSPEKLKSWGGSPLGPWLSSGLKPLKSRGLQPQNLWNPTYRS

AKT2 (human) = AKT2 (human) (UniProt P31751)
ULK2 (human) = ULK2 (human) (UniProt Q8IYT8)
PAK2 (human) = PAK2 (human) (UniProt Q13177)
PAK2 (human), sequence (Q13177 whole entry, looked up): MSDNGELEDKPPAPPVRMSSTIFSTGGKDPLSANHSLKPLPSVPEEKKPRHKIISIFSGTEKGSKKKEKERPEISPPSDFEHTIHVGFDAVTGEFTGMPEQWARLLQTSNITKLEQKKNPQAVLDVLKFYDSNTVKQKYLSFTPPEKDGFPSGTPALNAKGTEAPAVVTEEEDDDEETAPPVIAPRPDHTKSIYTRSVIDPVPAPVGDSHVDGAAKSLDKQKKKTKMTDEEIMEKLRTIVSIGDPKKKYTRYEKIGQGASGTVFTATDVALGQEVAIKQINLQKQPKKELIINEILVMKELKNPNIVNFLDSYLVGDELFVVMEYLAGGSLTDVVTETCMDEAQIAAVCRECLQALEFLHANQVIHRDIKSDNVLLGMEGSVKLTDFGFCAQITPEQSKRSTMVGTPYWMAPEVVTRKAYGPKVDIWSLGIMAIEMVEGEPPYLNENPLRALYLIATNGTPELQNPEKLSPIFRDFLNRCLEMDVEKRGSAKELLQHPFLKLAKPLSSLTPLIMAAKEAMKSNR

PRKACA (human) = PRKACA (human) (UniProt P17612)
CHEK1 (human) = CHEK1 (human) (UniProt O14757)
PIM1 (human) = PIM1 (human) (UniProt P11309)
EPHB4 (human) = EPHB4 (human) (UniProt P54760)
LRRK2 (human) = LRRK2 (human) (UniProt Q5S007)
NEK9 (human) = NEK9 (human) (UniProt Q8TD19)
MAP3K7 TAB1 (human) = MAP3K7 TAB1 (human) (UniProt O43318+Q15750)
MAP3K7 TAB1 (human), sequence (O43318 whole entry, looked up): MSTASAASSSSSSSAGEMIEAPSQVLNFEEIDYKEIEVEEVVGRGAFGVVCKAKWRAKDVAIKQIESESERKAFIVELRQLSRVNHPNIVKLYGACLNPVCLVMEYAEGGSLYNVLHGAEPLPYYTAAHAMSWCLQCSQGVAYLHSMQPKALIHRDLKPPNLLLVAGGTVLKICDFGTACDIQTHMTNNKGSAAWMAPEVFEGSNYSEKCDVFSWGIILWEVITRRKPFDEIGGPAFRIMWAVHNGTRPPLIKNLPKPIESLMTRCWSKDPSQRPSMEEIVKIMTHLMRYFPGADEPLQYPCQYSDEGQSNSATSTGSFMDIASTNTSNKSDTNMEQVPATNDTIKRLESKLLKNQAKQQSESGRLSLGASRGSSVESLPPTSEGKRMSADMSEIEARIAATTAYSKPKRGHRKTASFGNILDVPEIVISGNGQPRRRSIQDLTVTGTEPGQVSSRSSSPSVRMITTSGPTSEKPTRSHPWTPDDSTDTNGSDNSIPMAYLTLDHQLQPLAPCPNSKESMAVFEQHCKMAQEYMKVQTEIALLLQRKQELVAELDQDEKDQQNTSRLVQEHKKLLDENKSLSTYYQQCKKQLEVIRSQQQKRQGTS
MAP3K7 TAB1 (human), sequence (Q15750 whole entry, looked up): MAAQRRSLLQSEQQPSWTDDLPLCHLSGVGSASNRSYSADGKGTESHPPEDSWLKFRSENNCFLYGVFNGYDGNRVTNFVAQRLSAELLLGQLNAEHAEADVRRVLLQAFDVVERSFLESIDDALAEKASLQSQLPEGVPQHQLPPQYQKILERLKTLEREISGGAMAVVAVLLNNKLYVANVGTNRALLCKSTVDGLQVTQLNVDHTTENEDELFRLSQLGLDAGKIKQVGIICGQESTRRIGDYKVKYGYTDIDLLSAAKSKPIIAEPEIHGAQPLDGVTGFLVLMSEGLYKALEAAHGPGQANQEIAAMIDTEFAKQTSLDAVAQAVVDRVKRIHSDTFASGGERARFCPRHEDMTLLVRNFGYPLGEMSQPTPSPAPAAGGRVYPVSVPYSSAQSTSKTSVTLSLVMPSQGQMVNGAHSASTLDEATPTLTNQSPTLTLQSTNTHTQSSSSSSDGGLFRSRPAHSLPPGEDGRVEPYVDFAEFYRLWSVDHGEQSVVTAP

MYO3B (human) = MYO3B (human) (UniProt Q8WXR4)
WEE1 (human) = WEE1 (human) (UniProt P30291)
FLT3 (human) = FLT3 (human) (UniProt P36888)
MAPK9 (human) = MAPK9 (human) (UniProt P45984)
MAPK9 (human), sequence (P45984 whole entry, looked up): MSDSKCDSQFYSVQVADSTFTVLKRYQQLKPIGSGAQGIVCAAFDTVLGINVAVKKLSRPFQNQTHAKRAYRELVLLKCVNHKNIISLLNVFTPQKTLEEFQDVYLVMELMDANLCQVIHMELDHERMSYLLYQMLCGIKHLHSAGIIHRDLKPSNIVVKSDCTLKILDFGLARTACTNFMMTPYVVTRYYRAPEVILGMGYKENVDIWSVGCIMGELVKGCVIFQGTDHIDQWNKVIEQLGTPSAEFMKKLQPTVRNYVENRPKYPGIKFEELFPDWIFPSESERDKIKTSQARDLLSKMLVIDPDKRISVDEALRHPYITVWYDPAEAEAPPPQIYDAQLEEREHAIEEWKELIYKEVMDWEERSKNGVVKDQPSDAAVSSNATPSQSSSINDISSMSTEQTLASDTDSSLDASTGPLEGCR

CSNK1G1 (human) = CSNK1G1 (human) (UniProt Q9HCP0)
EPHA7 (human) = EPHA7 (human) (UniProt Q15375)
CDK3 CCNE1 (human) = CDK3 CCNE1 (human) (UniProt Q00526+P24864)
EPHA8 (human) = EPHA8 (human) (UniProt P29322)
PHKG2 (human) = PHKG2 (human) (UniProt P15735)
PHKG2 (human), sequence (P15735 whole entry, looked up): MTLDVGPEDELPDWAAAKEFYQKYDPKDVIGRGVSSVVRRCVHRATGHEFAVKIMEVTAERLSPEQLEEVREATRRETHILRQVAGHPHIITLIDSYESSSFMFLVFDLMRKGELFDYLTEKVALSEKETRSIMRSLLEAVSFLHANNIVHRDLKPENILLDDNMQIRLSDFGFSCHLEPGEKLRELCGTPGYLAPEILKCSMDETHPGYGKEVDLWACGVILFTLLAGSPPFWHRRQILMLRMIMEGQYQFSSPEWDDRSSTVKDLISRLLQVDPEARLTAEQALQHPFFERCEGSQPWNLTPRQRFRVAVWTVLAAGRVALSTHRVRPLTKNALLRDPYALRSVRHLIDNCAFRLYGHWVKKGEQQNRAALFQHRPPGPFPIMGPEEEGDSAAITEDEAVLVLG

PRKCE (human) = PRKCE (human) (UniProt Q02156)
TSSK1B (human) = TSSK1B (human) (UniProt Q9BXA7)
CDK4 CCND1 (human) = CDK4 CCND1 (human) (UniProt P24385+P11802)
CDK4 CCND1 (human), sequence (P11802 whole entry, looked up): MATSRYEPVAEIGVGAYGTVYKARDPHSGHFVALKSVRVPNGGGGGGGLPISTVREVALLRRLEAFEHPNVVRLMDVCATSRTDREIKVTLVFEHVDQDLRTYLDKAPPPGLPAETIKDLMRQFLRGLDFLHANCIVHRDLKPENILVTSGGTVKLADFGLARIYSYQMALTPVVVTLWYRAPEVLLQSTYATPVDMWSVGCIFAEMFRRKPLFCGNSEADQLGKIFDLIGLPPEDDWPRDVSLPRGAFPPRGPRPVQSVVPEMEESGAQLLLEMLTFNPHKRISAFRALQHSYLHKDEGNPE
CDK4 CCND1 (human), sequence (P24385 whole entry, looked up): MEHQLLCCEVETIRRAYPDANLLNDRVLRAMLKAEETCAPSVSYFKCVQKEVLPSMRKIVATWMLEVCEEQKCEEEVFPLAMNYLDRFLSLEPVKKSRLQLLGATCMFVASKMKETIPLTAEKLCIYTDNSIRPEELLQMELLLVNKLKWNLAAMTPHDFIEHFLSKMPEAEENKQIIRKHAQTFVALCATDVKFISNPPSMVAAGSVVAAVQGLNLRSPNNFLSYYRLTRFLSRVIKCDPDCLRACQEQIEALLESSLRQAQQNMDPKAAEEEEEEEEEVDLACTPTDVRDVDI

WNK3 (human) = WNK3 (human) (UniProt Q9BYP7)
EPHB3 (human) = EPHB3 (human) (UniProt P54753)
CAMK4 (human) = CAMK4 (human) (UniProt Q16566)
NEK1 (human) = NEK1 (human) (UniProt Q96PY6)
ULK3 (human) = ULK3 (human) (UniProt Q6PHR2)
CDK9 CCNK (human) = CDK9 CCNK (human) (UniProt O75909+P50750)
[1] = test system: MKNK1 (human), Q9BUB5 [T385D; 165-205 del]
MKNK1 (human), Q9BUB5 [T385D; 165-205 del], sequence (Q9BUB5 whole entry, looked up, stated change not applied): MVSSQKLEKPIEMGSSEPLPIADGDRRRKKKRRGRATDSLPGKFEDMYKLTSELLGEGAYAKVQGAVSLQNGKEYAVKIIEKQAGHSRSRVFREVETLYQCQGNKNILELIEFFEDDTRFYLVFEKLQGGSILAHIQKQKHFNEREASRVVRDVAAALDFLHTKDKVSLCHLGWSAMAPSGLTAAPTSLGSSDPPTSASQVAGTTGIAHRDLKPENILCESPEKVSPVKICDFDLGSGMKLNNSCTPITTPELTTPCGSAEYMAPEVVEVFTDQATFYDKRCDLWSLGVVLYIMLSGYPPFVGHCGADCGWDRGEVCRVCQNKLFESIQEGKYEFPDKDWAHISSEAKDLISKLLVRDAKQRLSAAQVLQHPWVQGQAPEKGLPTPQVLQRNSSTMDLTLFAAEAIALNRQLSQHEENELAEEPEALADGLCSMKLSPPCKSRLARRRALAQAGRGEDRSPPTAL

PKN2 (human) = PKN2 (human) (UniProt Q16513)
NTRK1 (human) = NTRK1 (human) (UniProt P04629)
CSF1R (human) = CSF1R (human) (UniProt P07333)
PRKACG (human) = PRKACG (human) (UniProt P22612)
PRKACG (human), sequence (P22612 whole entry, looked up): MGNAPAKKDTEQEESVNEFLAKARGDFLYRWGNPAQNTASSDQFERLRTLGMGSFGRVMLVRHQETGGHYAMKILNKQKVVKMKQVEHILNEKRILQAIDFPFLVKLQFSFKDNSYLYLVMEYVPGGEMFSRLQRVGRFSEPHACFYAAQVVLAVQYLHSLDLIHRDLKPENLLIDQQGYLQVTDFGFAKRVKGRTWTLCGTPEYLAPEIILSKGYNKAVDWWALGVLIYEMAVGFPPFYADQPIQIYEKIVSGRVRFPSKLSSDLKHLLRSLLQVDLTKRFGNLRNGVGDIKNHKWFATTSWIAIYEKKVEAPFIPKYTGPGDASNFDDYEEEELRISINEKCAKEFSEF

STK16 (human) = STK16 (human) (UniProt O75716)
IKBKE (human) = IKBKE (human) (UniProt Q14164)

Structure (SMILES): COc1cc2ncnc(Nc3ccc(Oc4ccccc4)cc3)c2cc1OC
- residual activity (IRAK4 (human)): 112%
- residual activity (PRKD3 (human)): 95.8%
- residual activity (CSNK2A2 (human)): 98.2%
- residual activity (STK38 (human)): 105%
- residual activity (PTK6 (human)): -0.0383%
- residual activity (STK3 (human)): 121%
- residual activity (LTK (human)): 98.3%
- residual activity (AKT2 (human)): 99.4%
- residual activity (ULK2 (human)): 97.8%
- residual activity (PAK2 (human)): 78.7%
- residual activity (PRKACA (human)): 102%
- residual activity (CHEK1 (human)): 97.4%
- residual activity (PIM1 (human)): 102%
- residual activity (EPHB4 (human)): 85.5%
- residual activity (LRRK2 (human)): 65.3%
- residual activity (NEK9 (human)): 97.8%
- residual activity (MAP3K7 TAB1 (human)): 102%
- residual activity (MYO3B (human)): 103%
- residual activity (WEE1 (human)): 99.1%
- residual activity (FLT3 (human)): 3.23%
- residual activity (MAPK9 (human)): 99%
- residual activity (CSNK1G1 (human)): 90%
- residual activity (EPHA7 (human)): 100%
- residual activity (CDK3 CCNE1 (human)): 98.5%
- residual activity (EPHA8 (human)): 97.4%
- residual activity (PHKG2 (human)): 100%
- residual activity (PRKCE (human)): 94.6%
- residual activity (TSSK1B (human)): 104%
- residual activity (CDK4 CCND1 (human)): 113%
- residual activity (WNK3 (human)): 87.8%
- residual activity (EPHB3 (human)): 103%
- residual activity (CAMK4 (human)): 97.8%
- residual activity (NEK1 (human)): 101%
- residual activity (ULK3 (human)): 94.7%
- residual activity (CDK9 CCNK (human)): 96.7%
- residual activity [1]: 98.9%
- residual activity (PKN2 (human)): 93.6%
- residual activity (NTRK1 (human)): 101%
- residual activity (CSF1R (human)): 100%
- residual activity (PRKACG (human)): 137%
- residual activity (STK16 (human)): 107%
- residual activity (IKBKE (human)): 101%

Structure (SMILES): COc1ccc2c(c1)/C(=C/c1cnc[nH]1)C(O)=N2
- residual activity (IRAK4 (human)): 92.2%
- residual activity (PRKD3 (human)): 38%
- residual activity (CSNK2A2 (human)): 77.5%
- residual activity (STK38 (human)): 86.2%
- residual activity (PTK6 (human)): 87.7%
- residual activity (STK3 (human)): 12.2%
- residual activity (LTK (human)): 93.6%
- residual activity (AKT2 (human)): 106%
- residual activity (ULK2 (human)): 97.7%
- residual activity (PAK2 (human)): 97.7%
- residual activity (PRKACA (human)): 99.9%
- residual activity (CHEK1 (human)): 76%
- residual activity (PIM1 (human)): 90.8%
- residual activity (EPHB4 (human)): 91.1%
- residual activity (LRRK2 (human)): 27.9%
- residual activity (NEK9 (human)): 83.2%
- residual activity (MAP3K7 TAB1 (human)): 63.7%
- residual activity (MYO3B (human)): 88%
- residual activity (WEE1 (human)): 94.2%
- residual activity (FLT3 (human)): 9.29%
- residual activity (MAPK9 (human)): 101%
- residual activity (CSNK1G1 (human)): 106%
- residual activity (EPHA7 (human)): 90.4%
- residual activity (CDK3 CCNE1 (human)): 35.2%
- residual activity (EPHA8 (human)): 103%
- residual activity (PHKG2 (human)): 88.3%
- residual activity (PRKCE (human)): 99%
- residual activity (TSSK1B (human)): 101%
- residual activity (CDK4 CCND1 (human)): 33.7%
- residual activity (WNK3 (human)): 88.5%
- residual activity (EPHB3 (human)): 98.8%
- residual activity (CAMK4 (human)): 97.4%
- residual activity (NEK1 (human)): 84.4%
- residual activity (ULK3 (human)): 67.9%
- residual activity (CDK9 CCNK (human)): 59.4%
- residual activity [1]: 88.4%
- residual activity (PKN2 (human)): 90.8%
- residual activity (NTRK1 (human)): 61.4%
- residual activity (CSF1R (human)): 88.7%
- residual activity (PRKACG (human)): 110%
- residual activity (STK16 (human)): 76.2%
- residual activity (IKBKE (human)): 92.5%

Structure (SMILES): Cc1cncc2cccc(S(=O)(=O)N3CCCN(C(=O)CN)C[C@H]3C)c12
- residual activity (IRAK4 (human)): 109%
- residual activity (PRKD3 (human)): 85.4%
- residual activity (CSNK2A2 (human)): 99.3%
- residual activity (STK38 (human)): 97.1%
- residual activity (PTK6 (human)): 87.8%
- residual activity (STK3 (human)): 104%
- residual activity (LTK (human)): 93%
- residual activity (AKT2 (human)): 97.2%
- residual activity (ULK2 (human)): 98.8%
- residual activity (PAK2 (human)): 99.7%
- residual activity (PRKACA (human)): 99.5%
- residual activity (CHEK1 (human)): 100%
- residual activity (PIM1 (human)): 105%
- residual activity (EPHB4 (human)): 85.1%
- residual activity (LRRK2 (human)): 54.6%
- residual activity (NEK9 (human)): 98.6%
- residual activity (MAP3K7 TAB1 (human)): 94.9%
- residual activity (MYO3B (human)): 104%
- residual activity (WEE1 (human)): 96.3%
- residual activity (FLT3 (human)): 90.1%
- residual activity (MAPK9 (human)): 106%
- residual activity (CSNK1G1 (human)): 92.4%
- residual activity (EPHA7 (human)): 90.7%
- residual activity (CDK3 CCNE1 (human)): 98%
- residual activity (EPHA8 (human)): 95%
- residual activity (PHKG2 (human)): 90.5%
- residual activity (PRKCE (human)): 52.4%
- residual activity (TSSK1B (human)): 103%
- residual activity (CDK4 CCND1 (human)): 114%
- residual activity (WNK3 (human)): 97.3%
- residual activity (EPHB3 (human)): 99.6%
- residual activity (CAMK4 (human)): 90.6%
- residual activity (NEK1 (human)): 100%
- residual activity (ULK3 (human)): 83.2%
- residual activity (CDK9 CCNK (human)): 103%
- residual activity [1]: 90.5%
- residual activity (PKN2 (human)): 74.7%
- residual activity (NTRK1 (human)): 100%
- residual activity (CSF1R (human)): 95.6%
- residual activity (PRKACG (human)): 112%
- residual activity (STK16 (human)): 97.9%
- residual activity (IKBKE (human)): 95%
